Assay: Evaluation of conversion rate to active form in buffer solution (Experimental Example 1)
Format: physicochemical
Settings: for Alvocidib amount produced, after subtracting the 28.2% Alvocidib of the sample (Table 36-2) / Production rate of Alvocidib / Residual rate: 37° C.; for Production rate of Alvocidib / Residual rate: 25 umol/L in buffer solution
Outline: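 25 umol/L cpd, 37° C; 50 mM citrate pH 5.0/5.5, 50 mM phosphate pH 6.0/6.5/7.0/7.4. HPLC at 0–3 h: residual rate and Alvocidib production rate.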

CN1CC[C@H](c2c(OC(=O)N(CCCC(F)(F)F)CC3CCCCN3)cc(O)c3c(=O)cc(-c4ccccc4Cl)oc23)[C@H](O)C1 (stereo partly drawn) [Example 14, 2-(2-chlorophenyl)-5-hydroxy-8-[(3S,4R)-3-hydroxy-1-methylpiperidin-4-yl]-4-oxo-4H-1-benzopyran-7-yl [(piperidin-2-yl)methyl](4,4,4-trifluorobutyl)carbamate]
Alvocidib amount produced, after subtracting the 28.2% Alvocidib of the sample (Table 36-2) (pH5.0, 0 hr): 1.0%
Production rate of Alvocidib (pH5.0, 0 hr): 29.2%
Residual rate (pH5.0, 0 hr): 56.6%
Stability in buffer solution at pH 5 (pH 5, 37° C., up to 2 or 3 hours): stable
Alvocidib amount produced, after subtracting the 28.2% Alvocidib of the sample (Table 36-2) (pH5.0, 0.5 hr): 1.7%
Production rate of Alvocidib (pH5.0, 0.5 hr): 29.9%
Residual rate (pH5.0, 0.5 hr): 54.6%
Alvocidib amount produced, after subtracting the 28.2% Alvocidib of the sample (Table 36-2) (pH5.0, 1 hr): 3.5%
Production rate of Alvocidib (pH5.0, 1 hr): 31.7%
Residual rate (pH5.0, 1 hr): 53.0%
Alvocidib amount produced, after subtracting the 28.2% Alvocidib of the sample (Table 36-2) (pH5.0, 2 hr): 4.9%
Production rate of Alvocidib (pH5.0, 2 hr): 33.1%
Residual rate (pH5.0, 2 hr): 51.0%
Alvocidib amount produced, after subtracting the 28.2% Alvocidib of the sample (Table 36-2) (pH5.0, 3 hr): 5.2%
Production rate of Alvocidib (pH5.0, 3 hr): 33.4%
Residual rate (pH5.0, 3 hr): 52.7%
Alvocidib amount produced, after subtracting the 28.2% Alvocidib of the sample (Table 36-2) (pH5.5, 0 hr): 0.8%
Production rate of Alvocidib (pH5.5, 0 hr): 29.0%
Residual rate (pH5.5, 0 hr): 57.5%
Alvocidib amount produced, after subtracting the 28.2% Alvocidib of the sample (Table 36-2) (pH5.5, 0.5 hr): 2.7%
Production rate of Alvocidib (pH5.5, 0.5 hr): 30.9%
Residual rate (pH5.5, 0.5 hr): 55.8%
Alvocidib amount produced, after subtracting the 28.2% Alvocidib of the sample (Table 36-2) (pH5.5, 1 hr): 4.5%
Production rate of Alvocidib (pH5.5, 1 hr): 32.7%
Residual rate (pH5.5, 1 hr): 54.3%
Alvocidib amount produced, after subtracting the 28.2% Alvocidib of the sample (Table 36-2) (pH5.5, 2 hr): 7.2%
Production rate of Alvocidib (pH5.5, 2 hr): 35.4%
Residual rate (pH5.5, 2 hr): 48.6%
Alvocidib amount produced, after subtracting the 28.2% Alvocidib of the sample (Table 36-2) (pH5.5, 3 hr): 9.7%
Production rate of Alvocidib (pH5.5, 3 hr): 37.9%
Residual rate (pH5.5, 3 hr): 47.7%
Alvocidib amount produced, after subtracting the 28.2% Alvocidib of the sample (Table 36-2) (pH6.0, 0 hr): 0.9%
Production rate of Alvocidib (pH6.0, 0 hr): 29.1%
Residual rate (pH6.0, 0 hr): 55.8%
Alvocidib amount produced, after subtracting the 28.2% Alvocidib of the sample (Table 36-2) (pH6.0, 0.5 hr): 6.2%
Production rate of Alvocidib (pH6.0, 0.5 hr): 34.4%
Residual rate (pH6.0, 0.5 hr): 49.7%
Alvocidib amount produced, after subtracting the 28.2% Alvocidib of the sample (Table 36-2) (pH6.0, 1 hr): 10.9%
Production rate of Alvocidib (pH6.0, 1 hr): 39.1%
Residual rate (pH6.0, 1 hr): 44.8%
Alvocidib amount produced, after subtracting the 28.2% Alvocidib of the sample (Table 36-2) (pH6.0, 2 hr): 22.0%
Production rate of Alvocidib (pH6.0, 2 hr): 50.2%
Residual rate (pH6.0, 2 hr): 31.8%
Alvocidib amount produced, after subtracting the 28.2% Alvocidib of the sample (Table 36-2) (pH6.0, 3 hr): 27.7%
Production rate of Alvocidib (pH6.0, 3 hr): 55.9%
Residual rate (pH6.0, 3 hr): 24.5%
Alvocidib amount produced, after subtracting the 28.2% Alvocidib of the sample (Table 36-2) (pH6.5, 0 hr): 3.4%
Production rate of Alvocidib (pH6.5, 0 hr): 31.6%
Residual rate (pH6.5, 0 hr): 52.2%
Alvocidib amount produced, after subtracting the 28.2% Alvocidib of the sample (Table 36-2) (pH6.5, 0.5 hr): 17.6%
Production rate of Alvocidib (pH6.5, 0.5 hr): 45.8%
Residual rate (pH6.5, 0.5 hr): 35.2%
Alvocidib amount produced, after subtracting the 28.2% Alvocidib of the sample (Table 36-2) (pH6.5, 1 hr): 28.9%
Production rate of Alvocidib (pH6.5, 1 hr): 57.1%
Residual rate (pH6.5, 1 hr): 22.9%
Alvocidib amount produced, after subtracting the 28.2% Alvocidib of the sample (Table 36-2) (pH6.5, 2 hr): 34.8%
Production rate of Alvocidib (pH6.5, 2 hr): 63.0%
Residual rate (pH6.5, 2 hr): 14.0%
Alvocidib amount produced, after subtracting the 28.2% Alvocidib of the sample (Table 36-2) (pH6.5, 3 hr): 44.4%
Production rate of Alvocidib (pH6.5, 3 hr): 72.6%
Residual rate (pH6.5, 3 hr): 5.1%
Alvocidib amount produced, after subtracting the 28.2% Alvocidib of the sample (Table 36-2) (pH7.0, 0 hr): 2.5%
Production rate of Alvocidib (pH7.0, 0 hr): 30.7%
Residual rate (pH7.0, 0 hr): 53.4%
Alvocidib amount produced, after subtracting the 28.2% Alvocidib of the sample (Table 36-2) (pH7.0, 0.5 hr): 33.8%
Production rate of Alvocidib (pH7.0, 0.5 hr): 62.0%
Residual rate (pH7.0, 0.5 hr): 16.3%
Alvocidib amount produced, after subtracting the 28.2% Alvocidib of the sample (Table 36-2) (pH7.0, 1 hr): 39.8%
Production rate of Alvocidib (pH7.0, 1 hr): 68.0%
Residual rate (pH7.0, 1 hr): 8.4%
Alvocidib amount produced, after subtracting the 28.2% Alvocidib of the sample (Table 36-2) (pH7.0, 2 hr): 47.3%
Production rate of Alvocidib (pH7.0, 2 hr): 75.5%
Residual rate (pH7.0, 2 hr): 1.1%
Alvocidib amount produced, after subtracting the 28.2% Alvocidib of the sample (Table 36-2) (pH7.0, 3 hr): 47.0%
Production rate of Alvocidib (pH7.0, 3 hr): 75.2%
Residual rate (pH7.0, 3 hr): 0.4%
Alvocidib amount produced, after subtracting the 28.2% Alvocidib of the sample (Table 36-2) (pH7.4, 0 hr): 7.7%
Production rate of Alvocidib (pH7.4, 0 hr): 35.9%
Residual rate (pH7.4, 0 hr): 45.8%
Conversion to Alvocidib at pH 7.4 (pH 7.4, 37° C., up to 3 hours): rapidly converted to Alvocidib
Alvocidib amount produced, after subtracting the 28.2% Alvocidib of the sample (Table 36-2) (pH7.4, 0.5 hr): 43.4%
Production rate of Alvocidib (pH7.4, 0.5 hr): 71.6%
Residual rate (pH7.4, 0.5 hr): 4.6%
Alvocidib amount produced, after subtracting the 28.2% Alvocidib of the sample (Table 36-2) (pH7.4, 1 hr): 48.4%
Production rate of Alvocidib (pH7.4, 1 hr): 76.6%
Residual rate (pH7.4, 1 hr): 0.7%
Alvocidib amount produced, after subtracting the 28.2% Alvocidib of the sample (Table 36-2) (pH7.4, 2 hr): 47.4%
Production rate of Alvocidib (pH7.4, 2 hr): 75.6%
Residual rate (pH7.4, 2 hr): 0.2%
Alvocidib amount produced, after subtracting the 28.2% Alvocidib of the sample (Table 36-2) (pH7.4, 3 hr): 47.5%
Production rate of Alvocidib (pH7.4, 3 hr): 75.7%
Residual rate (pH7.4, 3 hr): 0.3%

Reference: patent US12617779B2, “Self degradation-type CDK9 inhibitor prodrug and liposome encapsulating same” (Sumitomo Pharma Co., Ltd., priority 2021, dated 2026)
